± gives the expanded uncertainty stated by the source.
Test: xn = mol fraction of the nth substance listed
Settings: Liquid, Vibrating tube method, x1 = 1

CCC(C)O (centres undefined) [butan-2-ol] + CC(C)OC(C)C
mass density [kg/m3]
Settings | 293.15 K | 298.15 K | 313.15 K | 333.15 K | 353.19 K | 373.24 K | 393.28 K
100 kPa | 806.7 ± 0.7 | 802.6 ± 0.7 | 789.6 ± 0.7 | 770.8 ± 0.7 | 750.3 ± 0.7 | – | –
1000 kPa | 807.4 ± 0.7 | 803.3 ± 0.7 | 790.3 ± 0.7 | 771.8 ± 0.7 | 751.4 ± 0.7 | 729.1 ± 0.7 | 704.8 ± 0.7
5000 kPa | 810.4 ± 0.7 | 806.4 ± 0.7 | 793.7 ± 0.7 | 775.7 ± 0.7 | 756 ± 0.7 | 734.5 ± 0.7 | 711.3 ± 0.7
10000 kPa | 814 ± 0.7 | 810.1 ± 0.7 | 797.8 ± 0.7 | 780.3 ± 0.7 | 761.3 ± 0.7 | 740.8 ± 0.7 | 718.8 ± 0.7
15000 kPa | 817.4 ± 0.7 | 813.7 ± 0.7 | 801.6 ± 0.7 | 784.7 ± 0.7 | 766.4 ± 0.8 | 746.6 ± 0.8 | 725.6 ± 0.8
20000 kPa | 820.7 ± 0.7 | 817 ± 0.7 | 805.3 ± 0.8 | 788.9 ± 0.8 | 771 ± 0.8 | 751.9 ± 0.8 | 731.7 ± 0.8
25000 kPa | 823.9 ± 0.8 | 820.2 ± 0.8 | 808.6 ± 0.8 | 792.7 ± 0.8 | 775.4 ± 0.8 | 757 ± 0.8 | 737.4 ± 0.8
30000 kPa | 826.9 ± 0.8 | 823.4 ± 0.8 | 812.1 ± 0.8 | 796.4 ± 0.8 | 779.5 ± 0.8 | 761.6 ± 0.8 | 742.7 ± 0.8
35000 kPa | 829.8 ± 0.8 | 826.4 ± 0.8 | 815.3 ± 0.8 | 800 ± 0.8 | 783.5 ± 0.8 | 766.1 ± 0.8 | 747.8 ± 0.8
40000 kPa | 832.7 ± 0.8 | 829.2 ± 0.8 | 818.4 ± 0.8 | 803.5 ± 0.8 | 787.2 ± 0.8 | 770.3 ± 0.8 | 752.5 ± 0.9
45000 kPa | 835.4 ± 0.8 | 832 ± 0.8 | 821.3 ± 0.8 | 806.6 ± 0.8 | 790.8 ± 0.8 | 774.4 ± 0.9 | 757 ± 0.9
50000 kPa | 838.1 ± 0.8 | 834.7 ± 0.8 | 824.3 ± 0.8 | 809.8 ± 0.8 | 794.4 ± 0.9 | 778.1 ± 0.9 | 761.2 ± 0.9
55000 kPa | 840.6 ± 0.8 | 837.4 ± 0.8 | 827.1 ± 0.8 | 812.8 ± 0.9 | 797.7 ± 0.9 | 781.8 ± 0.9 | 765.4 ± 0.9
60000 kPa | 843.2 ± 0.8 | 839.9 ± 0.8 | 829.8 ± 0.9 | 815.8 ± 0.9 | 801 ± 0.9 | 785.3 ± 0.9 | 769.2 ± 0.9
65000 kPa | 845.6 ± 0.8 | 842.4 ± 0.8 | 832.5 ± 0.9 | 818.7 ± 0.9 | 804.1 ± 0.9 | 788.8 ± 0.9 | 772.9 ± 1
70000 kPa | 848 ± 0.9 | 844.8 ± 0.9 | 835 ± 0.9 | 821.4 ± 0.9 | 807.2 ± 0.9 | 792.1 ± 1 | 776.6 ± 1
80000 kPa | 852.6 ± 0.9 | 849.5 ± 0.9 | 839.9 ± 0.9 | 826.8 ± 0.9 | 812.9 ± 1 | 798.4 ± 1 | 783.4 ± 1
90000 kPa | 857.1 ± 0.9 | 854.1 ± 0.9 | 844.7 ± 0.9 | 831.9 ± 1 | 818.3 ± 1 | 804.3 ± 1 | 789.8 ± 1.1
100000 kPa | 861.2 ± 0.9 | 858.3 ± 0.9 | 849.1 ± 1 | 836.7 ± 1 | 823.5 ± 1 | 809.8 ± 1.1 | 795.8 ± 1.1
110000 kPa | 865.3 ± 0.9 | 862.4 ± 1 | 853.5 ± 1 | 841.3 ± 1 | 828.5 ± 1.1 | 815.1 ± 1.1 | 801.5 ± 1.1
120000 kPa | 869.2 ± 1 | 866.3 ± 1 | 857.6 ± 1 | 845.6 ± 1 | 833.1 ± 1.1 | 820.1 ± 1.1 | 806.8 ± 1.2
130000 kPa | 873 ± 1 | 870.1 ± 1 | 861.5 ± 1 | 849.9 ± 1.1 | 837.6 ± 1.1 | 824.9 ± 1.2 | 811.9 ± 1.2
140000 kPa | 876.6 ± 1 | 873.9 ± 1 | 865.4 ± 1 | 853.9 ± 1.1 | 842 ± 1.1 | 829.5 ± 1.2 | 816.8 ± 1.2
